According to patent US5068247A, “2-aminopentanoic acid compounds and their use as immunosuppressants” (priority 1989, dated 1991):
In brackets after ≈: the same amount, converted by molar mass.

Tests used:
Format in all cases: cell-based
[1] = test system: CTLL-2 cells; assay: suppression of proliferation of IL-2-dependent mouse cell line CTLL-2 induced by IL-2; settings: IL-2 50 U/ml, Table 6A; for inhibition at 0.001 µg/mL / inhibition at 0.01 µg/mL / inhibition at 0.1 µg/mL / inhibition at 1 µg/mL: Mus musculus, CTLL-2, 68 h, read-out: Suppression
Protocol: IL-2-dependent mouse cell line CTLL-2 cells were suspended in the RPMI1640 culture medium supplemented with 30% FCS to the concentration of 4×10^5 cells/ml. Fifty μl of the cell suspension, 50 μl of 200 U/ml recombinant human IL-2 (rhIL-2) and 100 μl of the test substance were added to a 96-well flat-bottomed microtest plate. […] The percent suppression (%) was calculated by the following formula. [formula]

[2] = test system: IL-3 production in PHA-stimulated mouse spleen cells; assay: suppression of IL-3 production in PHA-stimulated mouse spleen cells; settings: for inhibition at 0.001 µg/mL / inhibition at 0.01 µg/mL / inhibition at 0.1 µg/mL / inhibition at 1 µg/mL: Mus musculus, 24 h, read-out: Suppression
Protocol: The suppression of IL-2 and IL-3 production in the mitogen-stimulated mouse spleen cells was examined as follows:
The spleen was resected from 5- to 8-week-old male C3H/HeN mice, and a single cell suspension of spleen cells was prepared by using the RPMI1640 culture medium. After hemolytic treatment, the concentration of the suspension was adjusted to 10^7 cells/ml by using the RPMI1640 culture medium supplemented with 20% FCS, to which 10 μg/ml of phytohemagglutinin (PHA) was added as mitogen. […] After termination of culture, the supernatant was collected and used as the culture supernatant of PHA-stimulated mouse spleen cells.
The IL-3 activity was assayed as follows:
IL-3-dependent mouse cell line FDC-P2 cells were suspended in the RPMI1640 culture medium supplemented with 10% FCS to the concentration of 2×10^5 cells/ml. One hundred μl of the cell suspension and 100 μl of the two-fold serial dilution of the culture supernatant of PHA-stimulated mouse spleen cells described above were added to a 96-well flat-bottomed microtest plate. […] The IL-3 activity is expressed in U/ml as the dilution at which the absorbancy measured by MTT method was 50% of the maximum.

[3] = test system: mouse allogenic MLR (BALB/c mouse spleen cells stimulated with C57BL/6 mouse spleen cells); assay: mouse allogenic mixed lymphocyte reaction (MLR), 3H-thymidine uptake; settings: for 3H-thymidine uptake / inhibition at 0.0001 µg/mL / inhibition at 0.001 µg/mL / inhibition at 0.01 µg/mL / inhibition at 0.1 µg/mL / inhibition at 1 µg/mL: Table 1A; for inhibition at 0.0001 µg/mL / inhibition at 0.001 µg/mL / inhibition at 0.01 µg/mL / inhibition at 0.1 µg/mL / inhibition at 1 µg/mL / IC50: Mus musculus, Lymphocyte; for inhibition at 0.0001 µg/mL / inhibition at 0.001 µg/mL / inhibition at 0.01 µg/mL / inhibition at 0.1 µg/mL / inhibition at 1 µg/mL: read-out: Suppression; for IC50: read-out: 50%-inhibition concentration (IC50) in mouse allogenic MLR
Protocol: The immunosuppressive activity of the compounds was assayed on the basis of mouse allogenic mixed lymphocyte reaction (hereinafter sometimes abbreviated as MLR). Mouse allogenic MRL was carried out using a mixed culture of BALB/c mouse (H-2^d) spleen cells as the responder cells and mitomycin C-treated C57BL/6 ([…]) mouse spleen cells as the stimulator cells in equal amounts.
The responder cells were prepared as follows:
The spleen was resected from 5- to 6-week-old BALB/c mice, and single cell suspension of spleen cells was prepared by using the RPMI1640 culture medium (containing 60 μg/ml of kanamycin sulfate, 2 mM of L-glutamine, 10 mM of N-2-hydroxyethylpiperazine-N'-2-ethanesulphonate (HEPES) and 0.1% sodium hydrogencarbonate) to which heat-inactivated fetal calf serum (hereinafter sometimes abbreviated as FCS) had been added to 5%. After hemolytic treatment, the cell suspension was adjusted to a concentration of 10^7 cells/ml with the RPMI1640 culture medium supplemented with 10^-4 M 2-mercapto-ethanol and 20% FCS, and was used as the responder cell suspension.
The stimulator cells were prepared as follows: The spleen was resected from 5- to 6-week-old male C57BL/6 mice, and a single cell suspension of spleen cells was prepared by using the RPMI1640 culture medium. After hemolytic treatment, the cells were treated with 40 μg/ml of mitomycin C at 37° C. for 60 minutes. After washing three times, the cell suspension was adjusted to a concentration of 10^7 cells/ml with the RPMI1640 culture medium supplemented with 10^-4 M 2-mercapto-ethanol and 20% FCS, and was used as the stimulator cell suspension.
The blastogenesis of lymphocytes was assayed using ^3 H-thymidine uptake as an index. That is, after termination of culture, 18.5 KBq/well of ^3 H-thymidine was added thereto and the suspension was cultured for 4 hours. Cells were harvested by a cell-harvester, and the radioactivity incorporated into the cells was determined by a liquid scintillation counter, which was used as an index of blastogenesis of lymphocytes in the mouse allogenic MLR. The suppression of the mouse allogenic MLR was evaluated by calculating the percent suppression by the following formula.
The test substance dissolved in methanol was diluted with the RPMI1640 culture medium and put to use.

Compound: CCCCCCC1(CCCCCC/C=C/C[C@@H](O)[C@H](O)[C@@](N)(CO)C(=O)O)SCCS1 [Example 3]
- optical density (OD570) ([1]; 0.001 μg/ml): 0.551
- optical density (OD570) ([1]; 0.01 μg/ml): 0.449
- optical density (OD570) ([1]; 0.1 μg/ml): 0.471
- optical density (OD570) ([1]; 1 μg/ml): 0.152
- inhibition at 0.001 µg/mL ([1]; 0.001 μg/ml): 6%
- inhibition at 0.01 µg/mL ([1]; 0.01 μg/ml): 23.4%
- inhibition at 0.1 µg/mL ([1]; 0.1 μg/ml): 19.7%
- inhibition at 1 µg/mL ([1]; 1 μg/ml): 74.2%
- IL-3 activity ([2]; 0.001 μg/ml): 42.2 U/ml
- IL-3 activity ([2]; 0.01 μg/ml): 45.3 U/ml
- IL-3 activity ([2]; 0.1 μg/ml): 42.2 U/ml
- IL-3 activity ([2]; 1 μg/ml): 27.9 U/ml
- inhibition at 0.001 µg/mL ([2]; 0.001 μg/ml): 0%
- inhibition at 0.01 µg/mL ([2]; 0.01 μg/ml): 0%
- inhibition at 0.1 µg/mL ([2]; 0.1 μg/ml): 0%
- inhibition at 1 µg/mL ([2]; 1 μg/ml): 24.2%
- 3H-thymidine uptake ([3]; 0.0001 μg/ml): 17247 cpm
- 3H-thymidine uptake ([3]; 0.001 μg/ml): 16263 cpm
- 3H-thymidine uptake ([3]; 0.01 μg/ml): 13978 cpm
- 3H-thymidine uptake ([3]; 0.1 μg/ml): 14747 cpm
- 3H-thymidine uptake ([3]; 1 μg/ml): 631 cpm
- inhibition at 0.0001 µg/mL ([3]; 0.0001 μg/ml): 7.1%
- inhibition at 0.001 µg/mL ([3]; 0.001 μg/ml): 12.9%
- inhibition at 0.01 µg/mL ([3]; 0.01 μg/ml): 26.5%
- inhibition at 0.1 µg/mL ([3]; 0.1 μg/ml): 21.9%
- inhibition at 1 µg/mL ([3]; 1 μg/ml): 96.2%
- IC50 [3]: 0.25 µg/mL (≈ 0.523 µM)

Compound: CCCCCCC(O)C=CCCCCC=CCC(O)C(O)C(N)(CO)C(=O)O (stereo not drawn) [Example 1]
- optical density (OD570) ([1]; 0.001 μg/ml): 0.508
- optical density (OD570) ([1]; 0.01 μg/ml): 0.556
- optical density (OD570) ([1]; 0.1 μg/ml): 0.009
- optical density (OD570) ([1]; 1 μg/ml): 0.005
- inhibition at 0.001 µg/mL ([1]; 0.001 μg/ml): 13.3%
- inhibition at 0.01 µg/mL ([1]; 0.01 μg/ml): 5.1%
- inhibition at 0.1 µg/mL ([1]; 0.1 μg/ml): 98.6%
- inhibition at 1 µg/mL ([1]; 1 μg/ml): 99.3%
- IL-3 activity ([2]; 0.001 μg/ml): 34.3 U/ml
- IL-3 activity ([2]; 0.01 μg/ml): 27.9 U/ml
- IL-3 activity ([2]; 0.1 μg/ml): 12.2 U/ml
- IL-3 activity ([2]; 1 μg/ml): 10.5 U/ml
- inhibition at 0.001 µg/mL ([2]; 0.001 μg/ml): 6.8%
- inhibition at 0.01 µg/mL ([2]; 0.01 μg/ml): 24.2%
- inhibition at 0.1 µg/mL ([2]; 0.1 μg/ml): 66.8%
- inhibition at 1 µg/mL ([2]; 1 μg/ml): 71.5%
- 3H-thymidine uptake ([3]; 0.0001 μg/ml): 17985 cpm
- 3H-thymidine uptake ([3]; 0.001 μg/ml): 13566 cpm
- 3H-thymidine uptake ([3]; 0.01 μg/ml): 11016 cpm
- 3H-thymidine uptake ([3]; 0.1 μg/ml): 1020 cpm
- 3H-thymidine uptake ([3]; 1 μg/ml): 919 cpm
- inhibition at 0.0001 µg/mL ([3]; 0.0001 μg/ml): 2.7%
- inhibition at 0.001 µg/mL ([3]; 0.001 μg/ml): 29%
- inhibition at 0.01 µg/mL ([3]; 0.01 μg/ml): 44.1%
- inhibition at 0.1 µg/mL ([3]; 0.1 μg/ml): 100%
- inhibition at 1 µg/mL ([3]; 1 μg/ml): 100%
- IC50 [3]: 0.013 µg/mL (≈ 0.0324 µM)
